Data on 1 molecule can be found in patent US12661357B2, “Use of pyrido[1,2-a]pyrimidone analogue” (GUANGZHOU JOYO PHARMATECH CO., LTD, priority 2021, dated 2026).

Series [1] has as its system RPMI2650 head and neck cancer cells. Description: CTG cell proliferation IC50, RPMI 2650. Type of series: cell-based. Conditions: 72 hours, read-out: Absolute IC50. From the text: (§1) • 2). IC50 value: the concentration of inhibitor when 50% inhibitory effect was achieved; • 3). CAL-27 and RPMI 2650: head and neck cancer cell models; HepG2: hepatocellular cancer cells. CAL-27, RPMI 2650 and HepG2 cells were purchased from ATCC, where ATCC® No. was CRL-2095™, CCL-30™, HB-8065™, respectively. • 4). Both KYSE-150 and TE-1 were esophageal cancer cell models. The KYSE-150 cell line was purchased from DSMZ (German Collection of Microorganisms and Cell Cultures), and the DSMZ No. was ACC375; the TE-1 cell line was purchased from National Collection of Authenticated Cell Cultures, catalog number: TCHu89. • 5). RPMI 1640/F12 medium was a 1:1 mixture of RPMI 1640 medium and F12 medium. • 6). The percentages in 10% FBS in Table 1 and Table 2 were volume percentages. (2) Reagents • 1). FBS (fetal bovine serum) (purchased from ExCell, product number: FND500); • 2). MEM medium (purchased from Hyclone, product number: SH30024.01; • 3). DMEM medium (purchased from Gibco, product number: C11995500BT); • 4). MEM NEAA (purchased from Gibco, product number: 11140-050); • 5). RPMI1640 Culture medium (purchased from Gibco, product number: 11875-119); • 6). F12 Culture medium (purchased from Gibco, product number: 11765-054); (3) Test Article and Positive Control Article
(§2) 2. CTG Method was Used to Determine the Cell Proliferation IC50 of the Compound
(§3) • Step 1: Cells in exponential growth phase were harvested, and viable cells were counted with a Vi-Cell XR cytometer. The cell suspension was adjusted to an appropriate concentration with medium. […] After 10 minutes, the fluorescence signal value was measured with an Envision2104 plate reader. […]
(§4) Cell survival rate was calculated using the formula: Vsample/Vvehicle control×100%. Where, Vsample was the reading of the drug treatment group, and Vvehicle control was the average value of the solvent control group. GraphPad Prism 5.0 software was used, and a S-type dosage-survival rate curve was drawn using a nonlinear regression model and IC50 value was calculated.

Series [2] deals with CAL-27 head and neck cancer cells. Description: CTG cell proliferation IC50, CAL-27. Type of series: cell-based. Particulars: CAL-27 cells, 72 hours, read-out: Absolute IC50.
Description: as §1, §2, §3, §4

For series [3], the system named is HepG2 hepatocellular cancer cells. In words: CTG cell proliferation IC50, HepG2. Type of series: cell-based. Conditions: read-out: Absolute IC50.
Description: • 2). IC50 value: the concentration of inhibitor when 50% inhibitory effect was achieved; • 3). CAL-27 and RPMI 2650: head and neck cancer cell models; HepG2: hepatocellular cancer cells. CAL-27, RPMI 2650 and HepG2 cells were purchased from ATCC, where ATCC® No. was CRL-2095™, CCL-30™, HB-8065™, respectively. • 4). Both KYSE-150 and TE-1 were esophageal cancer cell models. The KYSE-150 cell line was purchased from DSMZ (German Collection of Microorganisms and Cell Cultures), and the DSMZ No. was ACC375; the TE-1 cell line was purchased from National Collection of Authenticated Cell Cultures, catalog number: TCHu89. • 5). RPMI 1640/F12 medium was a 1:1 mixture of RPMI 1640 medium and F12 medium. • 6). The percentages in 10% FBS in Table 1 and Table 2 were volume percentages. (2) Reagents • 1). […]
• Step 1: Cells in exponential growth phase were harvested, and viable cells were counted with a Vi-Cell XR cytometer. […] After 10 minutes, the fluorescence signal value was measured with an Envision2104 plate reader. […]
as §4

In series [4] the test system is stage IV gastric cancer. Description: Gastric cancer clinical trial (Subject 4). It counts as in vivo, human. Particulars: 0.7 mg then 0.4 mg once a day. On the procedure:
Clinical data: Subject 4. The informed consent form was made on Nov. 5, 2019. During the baseline period, examinations such as vital signs, physical examination, ECOG physical strength score, infectious disease markers, blood routine, urine routine, coagulation function, liver function, kidney function, electrolytes, fasting blood glucose, blood lipids, 12-lead electrocardiogram were performed. The tumor was diagnosed as stage IV gastric cancer. The lesions were located in the right lobe of the liver and the right lobe of the posterior liver, and the baseline diameters were 36.4 mm and 33.1 mm. Two surgical regimens, five therapeutic regimens including chemotherapy, anti-angiogenesis inhibitors combined with chemotherapy, and immunotherapy regimens were drug-resistant for subject 4 before medication administration; from Nov. 14, 2019, tablets containing compound I were single administered with a dose of 0.7 mg once a day. The dose of 0.7 mg contained one tablet of compound I with a specification of 0.5 mg and two tablets of compound I with a specification of 0.1 mg. After the subject's safety was confirmed, one week later, from Nov. 20, 2019, the tablets containing 0.7 mg of compound I were single administered, once a day, and the dose of 0.7 mg contained one tablet of compound I with a specification of 0.5 mg and two tablets of compound I with a specification of 0.1 mg. After the first cycle, the dose was reduced to 0.4 mg, single administration, once a day, until Apr. 9, 2020 and the 0.4 mg dose contained four tablets of compound I of 0.1 mg. During the period, examinations such as vital signs, physical examination, blood routine, urine routine, coagulation function, liver function, kidney function, electrolytes, fasting blood glucose, blood lipids, 12-lead electrocardiogram were performed.

SMILES strings stand for the structures. Read-outs that look alike come from different tables or passages of the source.

Usually IC50 stands for the concentration that gives 50% inhibition. Turning to `COCCOc1cnc2ccc(-c3cnc(OC)c(NS(=O)(=O)c4sc(C)nc4C)c3)cn2c1=O` [Compound I], the IC50 in series [1] (listed as compound I) was under 1000 nM; in series [1], 73 nM; in series [2] (listed as compound I), under 1000 nM; in series [2], 73 nM; in series [3] (72 hours) it was 574 nM; in series [3] (Homo sapiens, HepG2, 72 h), under 1000 nM. Besides, the progression-free survival in series [4] is reported as 5 months. Further, the serious side effects entry in series [4] was “one time of hyperglycemia above grade 3”. In addition, the “target lesion tumor change” value in series [4] (second month visit (C2D28)) is −9%.
